Measured values: patent US20130071415A1, “Heterocyclic Compounds as Janus Kinase Inhibitors” (BioCryst Pharmaceuticals, Inc., priority 2010, published 2013)
Structures can show the parent of a compound that is named as a salt.

melting point: 245.8 °C
Structure (SMILES): c1cc2c(-c3cn[nH]c3)ncnn2c1 (as salt: HCl) [Compound 13c, 4-(1H-Pyrazol-4-yl)pyrrolo[1,2-f][1,2,4]triazine]
